Read-outs that look alike come from different tables or passages of the source.
How the values were obtained:
FADU and BHY cell lines = test: Cell cycle analysis (PI, flow cytometry); assay type: cell-based; conditions: 100 μM, 24 and 48 h; more pronounced in BHY
Experimental: For analysis of cell cycle distribution, cells were fixed with 70% of ethanol and stained with PI. Flow cytometric analysis of DNA content was performed using PI in the FL2 chanel in linear mode. Cells with less than diploid DNA content were considered dead (sub-G1).
Figure 5. Cell cycle analysis of FADU and BHY cell lines incubated for 24 and 48 h with 100 μM of compound 2. Cell cycle distribution according to PI uptake, shown is the cell fraction subG1 for cell death and in G1, S and G2M phase of the cell cycle. n = 3, * p < .01, ** p < .001.

BHY cells = test: Proliferation (cell counting), BHY; assay type: cell-based; conditions: 100 µM
Experimental: (§1) FADU, BHY, SAS and CAL cell lines were obtained from ATCC-LGC and were cultured in DMEM (Invitrogen, Germany) supplemented with 10% of heat activated bovine serum (FBS, PAA, Germany), 1% of glutamine, 1% of penicillin-streptomycin (Invitrogen, Germany). To measure proliferation, SCCHN cells were split, reseeded (5 × 10^5 in 25 cm^2 flasks) and counted at the indicated time points. Cells were then replated at the initial density. The fold increase in cell number was calculated, all given results are based on triplicate experiments. To assess cell death 5 × 10^5 cells were stained with propidium iodide (PI, Sigma, Germany). Following incubation, cells were washed, resuspended in PBS, and analysed by flow cytometry. The fraction of PI-positive cells is reported as dead cell fraction.
(§2) Figure 3. […] Cells were incubated with compound 2 for 48 h and then subjected to PI staining and FACS analysis. PI-positive cell fraction as measure of cell death is reported. (B) Four SCCHN cell lines were incubated with 100 μM of compound 2 and counted on the indicated days. Experiments in triplicates, fold growth shown. (C) EGFR expression of SCCHN cell lines. EGFR high and low as detected by western blot analysis (D) The SCCHN cell lines were incubated with 100 μM of compound 2 for 72 h. Percent PI positive cells are given. Experiments in triplicates.

AURKA = biological target: T1, AURKA (Homo sapiens, UniProt O14965); test: DiscoverX competition binding assay, AURKA; conditions: read-out: Binding constant (Kd) AURKA
T1 construct: purchased DiscoverX Corporation (assay run externally by the vendor)
T1 sequence (O14965 1-403): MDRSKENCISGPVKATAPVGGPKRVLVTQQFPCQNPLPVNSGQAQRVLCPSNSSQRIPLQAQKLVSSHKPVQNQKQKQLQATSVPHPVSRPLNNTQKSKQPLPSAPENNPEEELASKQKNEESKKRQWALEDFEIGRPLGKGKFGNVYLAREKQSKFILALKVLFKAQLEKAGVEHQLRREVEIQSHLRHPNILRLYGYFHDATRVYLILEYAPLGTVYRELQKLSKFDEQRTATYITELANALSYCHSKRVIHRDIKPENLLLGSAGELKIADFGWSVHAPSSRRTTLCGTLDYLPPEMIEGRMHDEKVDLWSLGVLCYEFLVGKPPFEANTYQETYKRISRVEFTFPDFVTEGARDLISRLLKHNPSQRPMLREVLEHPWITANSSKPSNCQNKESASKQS
Experimental: The assay was performed externally at DiscoverX Corporation using a competition binding assay that quantitatively measures the ability of a compound to compete with an immobilised, active-site directed ligand[24]. The assay is performed by combining three components: DNA-tagged kinase, immobilised ligand and a test compound. The ability of the test compound to compete with the immobilised ligand was measured via quantitative PCR of the DNA tag. An 11-point 3-fold serial dilution of each test compound was prepared in 100% of DMSO at 100× final test concentration and subsequently diluted to 1× in the assay (final DMSO concentration = 1%). […] Binding constants (Kd) were calculated with a standard dose-response curve using the Hill equation.
Binding Affinities for EGFR, AURKA and AURKB
The assay was performed externally at DiscoverX Corporation using a competition binding assay that quantitatively measures the ability of a compound to compete with an immobilized, active-site directed ligand for target kinases AURKA, AURKB and EGFR.23 The assay is performed by combining three components: DNA-tagged kinase; immobilized ligand; and a test compound. The ability of the test compound to compete with the immobilized ligand was measured via quantitative PCR of the DNA tag. […] Compound Kds were determined using a compound top […]

FADU cells = test: Proliferation (cell counting), FADU; assay type: cell-based; conditions: 100 µM
Experimental: as §1, §2

aurora A kinase (AURKA) = biological target: T2, aurora A kinase (AURKA) (Homo sapiens, UniProt O14965); test: ADP-Glo kinase assay, Aurora A; assay type: biochemical
T2 construct: purchased BPS Bioscience (assay run externally by the vendor)
T2 sequence (O14965 1-403): T1 sequence (O14965 1-403)

Kd (AURKA): 3400 nM | IC50 (aurora A kinase (AURKA); 10 µM ATP, triplicate, read-out: AURKA IC50 ± SD): 1990 ± 50 nM | IC50 (aurora A kinase (AURKA); 10 µM ATP/0.2 mg/ml Kemptide, read-out: Aurora A IC50 (dose-response curve, supplement)): 2000 nM | Aurora A % Activity Set1 (aurora A kinase (AURKA); Log[nM] 0): 107% | Aurora A % Activity Set2 (aurora A kinase (AURKA); Log[nM] 0): 94% | Aurora A % Activity Set3 (aurora A kinase (AURKA); Log[nM] 0): 94% | Aurora A % Activity Set1 (aurora A kinase (AURKA); Log[nM] 1.0): 109% | Aurora A % Activity Set2 (aurora A kinase (AURKA); Log[nM] 1.0): 97% | Aurora A % Activity Set3 (aurora A kinase (AURKA); Log[nM] 1.0): 96% | Aurora A % Activity Set1 (aurora A kinase (AURKA); Log[nM] 1.5): 109% | Aurora A % Activity Set2 (aurora A kinase (AURKA); Log[nM] 1.5): 96% | Aurora A % Activity Set3 (aurora A kinase (AURKA); Log[nM] 1.5): 101% | Aurora A % Activity Set1 (aurora A kinase (AURKA); Log[nM] 2.0): 102% | Aurora A % Activity Set2 (aurora A kinase (AURKA); Log[nM] 2.0): 97% | Aurora A % Activity Set3 (aurora A kinase (AURKA); Log[nM] 2.0): 105% | Aurora A % Activity Set1 (aurora A kinase (AURKA); Log[nM] 2.5): 94% | Aurora A % Activity Set2 (aurora A kinase (AURKA); Log[nM] 2.5): 88% | Aurora A % Activity Set3 (aurora A kinase (AURKA); Log[nM] 2.5): 95% | Aurora A % Activity Set1 (aurora A kinase (AURKA); Log[nM] 3.0): 70% | Aurora A % Activity Set2 (aurora A kinase (AURKA); Log[nM] 3.0): 66% | Aurora A % Activity Set3 (aurora A kinase (AURKA); Log[nM] 3.0): 69% | Aurora A % Activity Set1 (aurora A kinase (AURKA); Log[nM] 3.5): 35% | Aurora A % Activity Set2 (aurora A kinase (AURKA); Log[nM] 3.5): 34% | Aurora A % Activity Set3 (aurora A kinase (AURKA); Log[nM] 3.5): 34% | Aurora A % Activity Set1 (aurora A kinase (AURKA); Log[nM] 4.0): 16% | Aurora A % Activity Set2 (aurora A kinase (AURKA); Log[nM] 4.0): 14% | Aurora A % Activity Set3 (aurora A kinase (AURKA); Log[nM] 4.0): 14% | Aurora A % Activity Set1 (aurora A kinase (AURKA); Log[nM] 4.5): 6% | Aurora A % Activity Set2 (aurora A kinase (AURKA); Log[nM] 4.5): 5% | Aurora A % Activity Set3 (aurora A kinase (AURKA); Log[nM] 4.5): 5% | Aurora A % Activity Set1 (aurora A kinase (AURKA); Log[nM] 5.0): 5% | Aurora A % Activity Set2 (aurora A kinase (AURKA); Log[nM] 5.0): 5% | Aurora A % Activity Set3 (aurora A kinase (AURKA); Log[nM] 5.0): 5%
SMILES: Brc1cccc(Nc2ncnc3[nH]ccc23)c1 [Compound 2, N^4-(3-bromophenyl)-7H-pyrrolo[2,3-d]pyrimidine-4-amine]
Cell cycle distribution (FADU and BHY cell lines): cell cycle arrest in G2M | Cell growth (fold growth) (BHY cells): completely inhibited cell growth | Cell growth (fold growth) (FADU cells): completely inhibited cell growth

From publication PMC6009956, “Design, synthesis and biological activity of N^4-phenylsubstituted-7H-pyrrolo[2,3-d]pyrimidin-4-amines as dual inhibitors of aurora kinase A and epidermal growth factor receptor kinase” (Journal of Enzyme Inhibition and Medicinal Chemistry, 2017)
